Laboratory results reported in patent EP4778922A1, “BICYCLIC COMPOUND, AND PREPARATION METHOD THEREFOR AND PHARMACEUTICAL USE THEREOF” (Shanghai Jeyou Pharmaceutical Co., Ltd., priority 2023, dated 2025).
Read-outs that look alike come from different tables or passages of the source.

What was measured:
22RV1 cells = experiment: Cell proliferation inhibition assay in 22RV1 cells (CellTiter-Glo, 7 days); assay type: cell-based, human; details: Homo sapiens
Protocol: • 1. The human prostate cancer cell lines 22RV1 and LNCaP were purchased from ATCC. […] The cell concentration was adjusted to an appropriate concentration (determined based on the results of cell density optimization experiments), and the cells were seeded into a 96-well plate. A 100 µL cell suspension was added, resulting in 3000 cells per well. […] On the second day, for 22Rv1 cells, test compounds at different concentrations were added, and the cells were incubated at 37°C in a 5% CO2 incubator for 7 days; for LNCaP cells, test compounds at different concentrations were added first, and after 1 hour of treatment, 0.2 nM DHT was added. The cells were then incubated at 37°C in a 5% CO2 incubator for 7 days. • 4. After the incubation period, a volume of CellTiter-Glo detection reagent equal to the volume of the culture medium was added to each well. The plate was shaken and mixed thoroughly for 5 minutes, then incubated at room temperature for 10 minutes. Readings were taken using a PerkinElmer EnVision microplate reader. • 5.
The IC50 curve was fitted and the IC50 value was calculated using the software GraphPad Prism 8 with the calculation formula XY-analysis/Nonlinear regression (curve fit)/Dose response-Inhibition/log (inhibitor) vs. response-Variable slope (four parameters).

[1] = Mouse pharmacokinetic test; assay type: in vivo, ICR mice; details: 30 mg/kg, PO-30mpk; for Tmax: read-out: Tmax
Protocol: Formulation preparation: The dosing solutions were prepared on the day of administration.
Six healthy male naive ICR mice weighing 25-30 g were selected and divided into two groups (intravenous and oral groups), with three mice in each group, and administered a single dose. […] Feeding was resumed 4 h after administration. Timing was initiated following intravenous and oral administration. […] The collected whole blood was briefly vortexed twice for mixing, placed on wet ice, and centrifuged at 4°C and 8000 rpm for 5 min within 1 h. The supernatant plasma was collected and stored at -80°C until processing and analysis. Table 3: Pharmacokinetics in mice

Row | SMILES | IC50 (22RV1 cells; 168 h) [nM] | other results
1 | CC(C)(c1ccc(-c2ccc(OCc3ccnc(N4CC(S(=N)(=O)C5CC5)C4)n3)cc2)cc1)c1cc(Cl)c(OCCCl)c(C#N)c1 (racemic) [Compound 295] |  | IC50 (22RV1 cells; 22Rv1, 168 h): 330 nM
2 | CC(C)(c1ccc(-c2cnc(OCc3ccnc(N4CC(S(C)(=N)=O)C4)n3)cn2)cc1)c1cc(Cl)c(OCCCl)c(C#N)c1 (racemic) [Compound 323] |  | IC50 (22RV1 cells; 22Rv1, 168 h): 570 nM
3 | CC(C)(c1ccc(-c2cnc(OCc3ccnc(N4CC(S(=N)(=O)C5CC5)C4)n3)cn2)cc1)c1cc(Cl)c(OCCCl)c(C#N)c1 (racemic) [Compound 350] |  | IC50 (22RV1 cells; 22Rv1, 168 h): 460 nM
4 | CC(C)(c1ccc(-c2ccc(OCc3ccnc(S(C)(=O)=O)n3)cc2)cc1)c1cc(Cl)c(OCCCl)c(C#N)c1 [Compound 1] | 1070 | 
5 | CC(C)(c1ccc(-c2cccc(OCc3ccnc(S(C)(=O)=O)n3)c2)cc1)c1cc(Cl)c(OCCCl)c(C#N)c1 [Compound 4] | 1380 | 
6 | CC(C)(c1ccc(-c2cccc(OCc3ccnc(P(C)(C)=O)n3)c2)cc1)c1cc(Cl)c(OCCCl)c(C#N)c1 [Compound 6] |  | AUC(0-inf) ([1]; in vivo): 447 µg·h/mL; Cmax ([1]; in vivo): 62800 ng/mL; half-life ([1]; in vivo): 2.2 h; Tmax ([1]; in vivo): 2.7 h
7 | CC(C)(c1ccc(N2CCC(Oc3ccnc(P(C)(C)=O)n3)CC2)cc1)c1cc(Cl)c(OCCCl)c(C#N)c1 [Compound 10] |  | AUC(0-inf) ([1]; in vivo): 316 µg·h/mL; Cmax ([1]; in vivo): 31000 ng/mL; half-life ([1]; in vivo): 5.4 h; Tmax ([1]; in vivo): 3.3 h
8 | CC(C)(c1ccc(-c2ccc(OCc3ccnc(P(C)(C)=O)n3)cn2)cc1)c1cc(Cl)c(OCCCl)c(C#N)c1 [Compound 15] | 1350 | 
9 | CC(C)(c1ccc(-c2ccc(OCc3ccnc(N=S4(=O)CCCC4)n3)nc2)cc1)c1cc(Cl)c(OCCCl)c(C#N)c1 [Compound 18] | 1460 | 
10 | CC(C)(c1ccc(-c2ccc(OCc3ccnc(N=S4(=O)CCOCC4)n3)nc2)cc1)c1cc(Cl)c(OCCCl)c(C#N)c1 [Compound 19] | 860 | 
11 | CC(C)(c1ccc(-c2ccc(C#Cc3ccnc(N=S4(=O)CCCC4)n3)cc2)cc1)c1cc(Cl)c(OCCCl)c(C#N)c1 [Compound 21] | 340 | 
12 | CC(C)(c1ccc(-c2ccc(OCc3ccnc(N4CC5(C4)CS(=O)(=O)C5)n3)cc2)cc1)c1cc(Cl)c(OCCCl)c(C#N)c1 [Compound 24] |  | IC50 (22RV1 cells; 22Rv1, 168 h): 1030 nM
13 | CC(C)(c1ccc(-c2cnc(OCc3ccnc(N4CC5(COC5)C4)n3)nc2)cc1)c1cc(Cl)c(OCCCl)c(C#N)c1 [Compound 35] | 840 | 
14 | CC(C)(c1ccc(-c2cnc(OCc3ccnc(N=S4(=O)CCCC4)n3)nc2)cc1)c1cc(Cl)c(OCCCl)c(C#N)c1 [Compound 36] | 1350 | 
15 | CC(C)(c1ccc(-c2ccc(OCc3ccnc(P(C)(C)=O)n3)cc2)cc1)c1cnc2c(cnn2CCCl)c1 [Compound 42] |  | AUC(0-inf) ([1]; plasma): 422 µg·h/mL; Cmax ([1]; plasma): 34300 ng/mL; half-life ([1]; plasma): 4.42 h; Tmax ([1]; plasma): 3.33 h
16 | CC(C)(c1ccc(-c2ccc(OCc3ccnc(N=S4(=O)CCOCC4)n3)cc2)cc1)c1cc(Cl)c(OCCCl)c(C#N)c1 [Compound 43] | 300 | 
17 | CC(C)(c1ccc(-c2ccc(OCc3ccnc(N4CC5(COC5)C4)n3)cc2)cc1)c1cnc2c(cnn2CCCl)c1 [Compound 45] | 990 | 
18 | CC(C)(c1ccc(-c2ccc(OCc3ccnc(N4CC(O)C4)n3)cc2)cc1)c1cc(Cl)c(OCCCl)c(C#N)c1 [Compound 54] | 1420 | 
19 | CC(C)(c1ccc(-c2ccc(OCC3CCOCC3)cc2)cc1)c1cc(Cl)c(OCCCl)c(C#N)c1 [Compound 74] | 290 | 
20 | CC(C)(c1ccc(-c2ccc(OC3CCN(c4ccnc(N5CC6(COC6)C5)n4)CC3)cc2)cc1)c1cc(Cl)c(OCCCl)c(C#N)c1 [Compound 77] | 1470 | 
21 | CC(C)(c1ccc(-c2ccc(OC3CCN(c4ccnc(N5CC6(C5)CS(=O)(=O)C6)n4)CC3)cc2)cc1)c1cc(Cl)c(OCCCl)c(C#N)c1 [Compound 78] | 710 | 
22 | CC(C)(c1ccc(-c2ccc(OCC3CC(CN4CC5(C4)CS(=O)(=O)C5)C3)cc2)cc1)c1cc(Cl)c(OCCCl)c(C#N)c1 (stereo not drawn) [Compound 80] | 110 | 
23 | C[S+]([O-])c1nccc(COc2ccc(-c3ccc(C(C)(C)c4cc(Cl)c(OCCCl)c(C#N)c4)cc3)cc2)n1 (stereo not drawn) [Compound 81] | 860 | 
24 | CC(C)(c1ccc(-c2ccc(OCc3ccnc(N4CC5(C4)CS(=O)(=O)C5)n3)cn2)cc1)c1cc(Cl)c(OCCCl)c(C#N)c1 [Compound 84] | 1050 | 
25 | CC(C)(c1ccc(-c2ccc(OCc3ccnc(N=S4(=O)CCNCC4)n3)cn2)cc1)c1cc(Cl)c(OCCCl)c(C#N)c1 [Compound 86] | 630 | 
26 | CC1(NS(C)(=O)=O)CN(c2nccc(COc3ccc(-c4ccc(C(C)(C)c5cc(Cl)c(OCCCl)c(C#N)c5)cc4)cc3)n2)C1 [Compound 90] | 1320 | 

Row | SMILES | IC50 (22RV1 cells; 168 h) [nM] | other results
27 | CN(C1CN(c2nccc(COc3ccc(-c4ccc(C(C)(C)c5cc(Cl)c(OCCCl)c(C#N)c5)cc4)cc3)n2)C1)S(C)(=O)=O [Compound 93] | 1010 | 
28 | CC(C)(c1ccc(-c2ccc(OCc3ccnc(N4CC5(CNC5)C4)n3)cc2)cc1)c1cc(Cl)c(OCCCl)c(C#N)c1 [Compound 104] | 920 | 
29 | CC(C)(c1ccc(-c2ccc(OCc3ccnc(N4CC5(C4)CN(S(C)(=O)=O)C5)n3)cc2)cc1)c1cc(Cl)c(OCCCl)c(C#N)c1 [Compound 105] | 300 | 
30 | CC(C)(c1ccc(-c2ccc(OCC3CC4(C3)CS(=O)(=O)C4)cc2)cc1)c1cc(Cl)c(OCCCl)c(C#N)c1 [Compound 106] | 190 | 
31 | CC(C)(c1ccc(-c2ccc(OCc3ccnc(N4CC5(CC(S(C)(=O)=O)C5)C4)n3)cc2)cc1)c1cc(Cl)c(OCCCl)c(C#N)c1 [Compound 121] | 190 | 
32 | CC(C)(c1ccc(-c2ccc(OCc3ccnc(N4CC5(CC(=O)C5)C4)n3)cc2)cc1)c1cc(Cl)c(OCCCl)c(C#N)c1 [Compound 122] | 1280 | 
33 | CC(C)(c1ccc(-c2ccc(OCc3ccnc(N=S4(=O)CCN(CC(F)(F)F)CC4)n3)cn2)cc1)c1cc(Cl)c(OCCCl)c(C#N)c1 [Compound 139] | 650 | 
34 | CC(C)(c1ccc(-c2ccc(OC3CC4CCC(C3)N4c3ccnc(P(C)(C)=O)n3)nc2)cc1)c1cc(Cl)c(OCCCl)c(C#N)c1 (stereo not drawn) [Compound 140] | 530 | 
35 | CC(C)(c1ccc(-c2ccc(OC3CCN(c4ccnc(N5CC(S(C)(=O)=O)C5)n4)CC3)cc2)cc1)c1cc(Cl)c(OCCCl)c(C#N)c1 [Compound 143] | 900 | 
36 | CC(C)(c1ccc(-c2ccc(OCc3ccnc(C4CNC4)n3)cc2)cc1)c1cc(Cl)c(OCCCl)c(C#N)c1 [Compound 144] | 740 | 
37 | CC(C)(c1ccc(-c2ccc(OC3CCN(c4ccnc(N5CC(S(C)(=O)=O)C5)n4)CC3)nc2)cc1)c1cc(Cl)c(OCCCl)c(C#N)c1 [Compound 148] | 770 | 
38 | CC(C)(c1ccc(-c2ccc(OCc3ccnc(P(C)(C)=O)n3)cc2)cc1)c1cc(Cl)c(OCC2CCC2)c(C#N)c1 [Compound 152] | 330 | 
39 | CC(C)(c1ccc(-c2cc(F)c(OCc3ccnc(N=S4(=O)CCOCC4)n3)cn2)cc1)c1cc(Cl)c(OCCCl)c(C#N)c1 [Compound 153] | 780 | 
40 | CC(C)(c1ccc(-c2ccc(OCc3ccnc(N=S4(=O)CCOCC4)n3)c(F)n2)cc1)c1cc(Cl)c(OCCCl)c(C#N)c1 [Compound 154] | 260 | 
41 | CC(C)(c1ccc(-c2ccc(OCc3scnc3P(C)(C)=O)cc2)cc1)c1cc(Cl)c(OCCCl)c(C#N)c1 [Compound 157] | 480 | 
42 | CC(C)(c1ccc(-c2ccc(OCc3ccnc(N4CC(OCCS(C)(=O)=O)C4)n3)cc2)cc1)c1cc(Cl)c(OCCCl)c(C#N)c1 [Compound 160] |  | IC50 (22RV1 cells; 22Rv1, 168 h): 230 nM
43 | CC(C)(c1ccc(-c2ccc(OCc3ccnc(N4CC5(CC(O)C5)C4)n3)cc2)cc1)c1cc(Cl)c(OCCCl)c(C#N)c1 [Compound 165] | 390 | 
44 | COC1CC2(C1)CN(c1nccc(COc3ccc(-c4ccc(C(C)(C)c5cc(Cl)c(OCCCl)c(C#N)c5)cc4)cc3)n1)C2 [Compound 166] | 1210 | 
45 | CC(C)(c1ccc(-c2ccc(OCC3CCOCC3)cn2)cc1)c1cc(Cl)c(OCCCl)c(C#N)c1 [Compound 169] | 360 | 
46 | CC(C)(c1ccc(-c2ccc(OC[C@@H]3CCOC3)cc2)cc1)c1cc(Cl)c(OCCCl)c(C#N)c1 [Compound 171] | 1240 | 
47 | CC(C)(c1ccc(-c2ccc(OCC3CN(C4CC4)C3)cc2)cc1)c1cc(Cl)c(OCCCl)c(C#N)c1 [Compound 172] | 1230 | 
48 | CC(C)(c1ccc(-c2ccc(OCc3ccnc(P(C)(C)=O)n3)c(C#N)c2)cc1)c1cc(Cl)c(OCCCl)c(C#N)c1 [Compound 173] | 400 | 
49 | CC(C)(c1ccc(-c2ccc(OCC3CCOCC3)nc2)cc1)c1cc(Cl)c(OCCCl)c(C#N)c1 [Compound 184] | 920 | 
50 | CC(c1ccccc1)(c1ccc(-c2ccc(OCc3ccnc(P(C)(C)=O)n3)cc2)cc1)c1cc(Cl)c(OCCCl)c(C#N)c1 (stereo not drawn) [Compound 190] | 630 | 
51 | CC(C)(c1ccc(-c2ccc(/C=C/c3ccnc(P(C)(C)=O)n3)cc2)cc1)c1cc(Cl)c(OCCCl)c(C#N)c1 [Compound 228] |  | AUC(0-inf) ([1]; plasma, po): 242 µg·h/mL; Cmax ([1]; plasma, po): 14500 ng/mL; half-life ([1]; plasma, po): 6 h; Tmax ([1]; plasma, po): 4 h
